Calls of active or inactive are those of the source. The calls are words filed in the database; no cut-off is given here.
Experiments:
SH-SY5Y [1] = test: Neuroprotective activity against oxygen glucose deprivation/reperfusion-induced cell death in human SH-SY5Y cells assessed as cell viability at 3 uM […] by CCK8 assay relative to control; type: functional
SH-SY5Y [2] = test: Neuroprotective activity against oxygen glucose deprivation/reperfusion-induced cell death in human SH-SY5Y cells assessed as cell viability at 1 to 30 uM […] by CCK8 assay relative to control; type: functional; conditions: dose 1-30 µM
[3] = Half life in C57BL/6 mouse plasma at 3 mg/kg, iv by LC-MS/MS analysis; type: ADME, organism-based
[4] = AUC (0 to infinitive) in C57BL/6 mouse plasma at 3 mg/kg, iv by LC-MS/MS analysis; type: ADME, organism-based; set-up: time infinity, route intravenous, dose 3 mg/kg
[5] = Half life in C57BL/6 mouse plasma at 0.3 mg/kg, iv by LC-MS/MS analysis; type: ADME, organism-based
[6] = Cmax in C57BL/6 mouse plasma at 0.3 mg/kg, iv by LC-MS/MS analysis; type: ADME, organism-based; set-up: route intravenous, dose 0.3 mg/kg
[7] = Cmax in C57BL/6 mouse plasma at 1 mg/kg, iv by LC-MS/MS analysis; type: ADME, organism-based; set-up: route intravenous, dose 1 mg/kg
[8] = AUC (0 to t) in C57BL/6 mouse plasma at 10 mg/kg, IG by LC-MS/MS analysis; type: ADME, organism-based; set-up: dose 10 mg/kg; conditions: po
[9] = AUC (0 to infinitive) in C57BL/6 mouse plasma at 0.3 mg/kg, iv by LC-MS/MS analysis; type: ADME, organism-based; set-up: time infinity, route intravenous, dose 0.3 mg/kg
[10] = AUC (0 to infinitive) in C57BL/6 mouse plasma at 10 mg/kg, IG by LC-MS/MS analysis; type: ADME, organism-based; set-up: route […], time infinity, dose 10 mg/kg; conditions: po
[11] = Clearance in C57BL/6 mouse plasma at 10 mg/kg, IG by LC-MS/MS analysis; type: ADME, organism-based; conditions: po
[12] = MRT in C57BL/6 mouse plasma at 10 mg/kg, IG by LC-MS/MS analysis; type: ADME, organism-based; conditions: po

Structure (SMILES): O=C(/C=C/c1ccc(-c2cccc(C(F)(F)F)c2)cc1)Nc1ccccc1C(=O)O
- Activity (SH-SY5Y [1]): Active
- Activity (SH-SY5Y [2]): 80%
- half-life [3]: 1.34 h
- AUC(0-inf) [4]: 40900 ng·h/mL
- half-life [5]: 0.93 h
- Cmax [6]: 5070 ng/mL
- Cmax [7]: 13000 ng/mL
- AUC(0-t) [8]: 157000 ng·h/mL
- AUC(0-inf) [9]: 5450 ng·h/mL
- AUC(0-inf) [10]: 160000 ng·h/mL
- CL/F [11]: 1.04 mL/min/kg
- MRT [12]: 2.25 h

Reference: ChEMBL document CHEMBL4834416, “The Discovery of Novel ACA Derivatives as Specific TRPM2 Inhibitors that Reduce Ischemic Injury Both In Vitro and In Vivo” (J Med Chem, 2021)
